Laboratory results published in the NIST ThermoML archive (doi:10.1021/je800242n).
“And” between values parts separate entries of the source, which are not always exact repeats. Equal values may be shown once.

Conditions: Crystal

[F][Zn][F] [zinc fluoride]
Conditions | vapor or sublimation pressure
846 K | 1.2e-05 kPa
852 K | 1.2e-05 kPa
853 K | 1.23e-05 kPa
854 K | 1.78e-05 kPa
859 K | 1.23e-05 kPa
865 K | 2.4e-05 kPa
867 K | 1.82e-05 kPa and 2.4e-05 kPa
871 K | 2.45e-05 kPa
875 K | 2.45e-05 kPa
876 K | 3.55e-05 kPa and 4.79e-05 kPa
880 K | 3.63e-05 kPa and 3.55e-05 kPa
883 K | 4.57e-05 kPa and 3.63e-05 kPa
885 K | 4.57e-05 kPa
886 K | 3.63e-05 kPa
887 K | 4.57e-05 kPa and 6.03e-05 kPa and 4.9e-05 kPa
888 K | 4.57e-05 kPa
889 K | 7.24e-05 kPa
891 K | 6.03e-05 kPa
893 K | 6.17e-05 kPa
895 K | 6.76e-05 kPa and 4.9e-05 kPa
896 K | 6.76e-05 kPa and 6.17e-05 kPa
898 K | 6.76e-05 kPa and 8.32e-05 kPa and 7.41e-05 kPa
900 K | 6.76e-05 kPa
902 K | 8.51e-05 kPa and 8.32e-05 kPa
903 K | 9.12e-05 kPa and 0.000107 kPa
904 K | 7.41e-05 kPa
905 K | 7.41e-05 kPa
906 K | 9.12e-05 kPa and 0.000107 kPa
909 K | 0.000102 kPa and 9.77e-05 kPa
910 K | 0.00012 kPa
911 K | 0.000115 kPa
912 K | 9.77e-05 kPa
913 K | 0.000138 kPa and 0.000123 kPa
914 K | 0.000155 kPa and 0.00011 kPa
916 K | 0.000158 kPa and 0.000166 kPa
919 K | 0.000158 kPa and 0.000135 kPa
920 K | 0.000166 kPa
921 K | 0.000182 kPa
922 K | 0.000135 kPa
923 K | 0.000204 kPa and 0.000148 kPa
924 K | 0.000204 kPa
925 K | 0.000182 kPa
926 K | 0.000229 kPa
928 K | 0.000204 kPa and 0.000251 kPa
930 K | 0.000251 kPa and 0.000195 kPa
932 K | 0.000263 kPa
933 K | 0.000195 kPa and 0.000275 kPa
934 K | 0.000295 kPa and 0.000257 kPa and 0.000209 kPa
937 K | 0.000316 kPa
938 K | 0.000372 kPa
939 K | 0.000316 kPa
940 K | 0.000339 kPa
941 K | 0.000372 kPa and 0.000282 kPa
942 K | 0.000282 kPa and 0.000355 kPa
943 K | 0.000282 kPa
945 K | 0.000407 kPa
946 K | 0.00038 kPa
948 K | 0.000437 kPa
950 K | 0.000479 kPa and 0.000513 kPa
951 K | 0.000479 kPa and 0.000389 kPa
952 K | 0.000363 kPa and 0.000501 kPa
955 K | 0.000575 kPa
956 K | 0.000513 kPa and 0.000417 kPa
958 K | 0.000575 kPa
959 K | 0.000589 kPa
960 K | 0.000661 kPa
961 K | 0.000661 kPa and 0.000525 kPa
962 K | 0.000692 kPa
963 K | 0.000525 kPa and 0.000692 kPa
965 K | 0.000589 kPa
966 K | 0.000794 kPa and 0.000692 kPa
968 K | 0.000759 kPa
969 K | 0.000851 kPa and 0.000912 kPa
970 K | 0.000871 kPa and 0.000708 kPa
972 K | 0.000912 kPa
973 K | 0.000955 kPa
974 K | 0.000741 kPa
975 K | 0.000912 kPa and 0.000813 kPa
976 K | 0.00107 kPa
978 K | 0.00105 kPa and 0.00123 kPa
979 K | 0.00115 kPa and 0.000933 kPa
980 K | 0.00115 kPa
982 K | 0.0012 kPa
983 K | 0.000977 kPa and 0.00132 kPa
984 K | 0.00105 kPa
986 K | 0.00145 kPa and 0.00126 kPa
988 K | 0.00148 kPa and 0.00158 kPa
989 K | 0.00148 kPa and 0.00138 kPa and 0.00126 kPa
991 K | 0.00158 kPa
993 K | 0.00132 kPa and 0.00135 kPa
994 K | 0.00178 kPa
996 K | 0.00191 kPa and 0.00195 kPa
997 K | 0.00166 kPa
998 K | 0.00182 kPa and 0.00214 kPa
999 K | 0.00195 kPa and 0.00166 kPa
1001 K | 0.00209 kPa
1003 K | 0.00178 kPa
1004 K | 0.00174 kPa and 0.00245 kPa
1005 K | 0.00251 kPa
1006 K | 0.00245 kPa
1007 K | 0.00234 kPa
1008 K | 0.00219 kPa
1009 K | 0.00219 kPa and 0.00295 kPa
1010 K | 0.00257 kPa
1011 K | 0.00269 kPa
1013 K | 0.00229 kPa and 0.00316 kPa and 0.00234 kPa
1016 K | 0.00347 kPa
1017 K | 0.00324 kPa and 0.00295 kPa
1019 K | 0.00295 kPa
1020 K | 0.00295 kPa
1021 K | 0.00347 kPa and 0.00339 kPa
1022 K | 0.00398 kPa and 0.00302 kPa
1023 K | 0.00309 kPa
1027 K | 0.00407 kPa and 0.0038 kPa
1031 K | 0.00447 kPa and 0.00457 kPa and 0.00537 kPa
1035 K | 0.00427 kPa
1036 K | 0.00525 kPa
1037 K | 0.0049 kPa
1039 K | 0.00562 kPa
1040 K | 0.00692 kPa
1041 K | 0.00562 kPa
1046 K | 0.00676 kPa and 0.00575 kPa
1047 K | 0.00631 kPa
